In patent US8017612B2, “Piperazine compound and use thereof as a HCV polymerase inhibitor” (priority 2006, dated 2011):

What was measured:
[1] = target: T1, HCV polymerase (NS5B) type 1a (Hepatitis C virus genotype 1a, UniProt P26664); assay: Assay of enzyme (HCV polymerase) inhibitory activity, type 1a enzyme; assay type: biochemical, HCV type 1a (cloned from the blood of patients); conditions: HCV polymerase inhibitory activity (IC50), 1a, type 1a enzyme 1.5 μg/ml, 25° C., 60 min
T1 construct: made in house; host or cells: Escherichia coli (by the 'similar method' of the 1b enzyme)
In short: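 Patient-derived type 1a NS5B (C-terminal 47-aa deletion, His-tagged, E. coli-expressed) at 1.5 μg/ml was reacted with 5 μg/ml 3′UTR-containing substrate RNA, 50 μM ATP/GTP/CTP, 2 μM UTP plus [3H]UTP, pH 7.5, 25° C for 60 min. TCA-precipitated RNA radioactivity was counted; IC50 from ± compound.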

[2] = target: T2, HCV polymerase (NS5B) type 1b (Hepatitis C virus genotype 1b, UniProt P26663); assay: Assay of enzyme (HCV polymerase) inhibitory activity, type 1b enzyme; assay type: biochemical, HCV BK strain (type 1b); conditions: HCV polymerase inhibitory activity (IC50), 1b, type 1b enzyme 0.5 μg/ml, 25° C., 60 min
T2 construct: a region encoding NS5B (J Virol 1991 March, 65(3), 1105-13, 544 amino acids after deletion of 47 amino acids on the C-terminal); 6xHis (C); made in house; host or cells: Escherichia coli
In short: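 NS5B from HCV BK strain (type 1b), C-terminal 47 aa deleted, C-terminal His6-tagged, E. coli-expressed, 0.5 μg/ml, with ~450 nt substrate RNA carrying the 3′ UTR (polyU, 3′X) at 5 μg/ml. Incubation 60 min at 25 °C with 50 μM ATP/GTP/CTP, 2 μM UTP plus [3H]UTP, pH 7.5 Tris.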

SMILES	IC50 [1]	IC50 [2]
CCOC(=O)c1nnc(NC(=O)N2CCN(S(=O)(=O)c3ccc(OC(F)(F)F)cc3)[C@@H](C(=O)NCc3ccc(C(F)(F)CC)cc3)C2)s1 [Example 477, 5-{[(R)-3-[4-(1,1-difluoro-propyl)-benzylcarbamoyl]-4-(4-trifluoromethoxy-benzenesulfonyl)-piperazine-1-carbonyl]-amino}-[1,3,4]thiadiazole-2-carboxylic acid ethyl ester]	> 1 µM	> 1 µM
CCCc1ccc(CNC(=O)[C@H]2CN(c3cnc(CO)cn3)CCN2S(=O)(=O)c2ccc(CC)cc2)cc1 [Example 478, (R)-4-(4-ethyl-benzenesulfonyl)-5′-hydroxymethyl-3,4,5,6-tetrahydro-2H-[1,2′]bipyrazinyl-3-carboxylic acid 4-propyl-benzylamide]	< 0.1 µM	< 0.1 µM
CCC(F)(F)c1ccc(CNC(=O)[C@H]2CN(C(=O)Cn3nnc(-c4ccccc4)n3)CCN2S(=O)(=O)c2ccc(OC(F)(F)F)cc2)cc1 [Example 479, (R)-4-[2-(5-phenyl-tetrazol-2-yl)-acetyl]-1-(4-trifluoromethoxy-benzenesulfonyl)-piperazine-2-carboxylic acid 4-(1,1-difluoro-propyl)-benzylamide]	< 0.1 µM	< 0.1 µM
CCC(F)(F)c1ccc(CNC(=O)[C@H]2CN(C(=O)Cc3cc(C)no3)CCN2S(=O)(=O)c2ccc(OC(F)(F)F)cc2)cc1 [Example 480, (R)-4-[2-(3-methyl-isoxazol-5-yl)-acetyl]-1-(4-trifluoromethoxy-benzenesulfonyl)-piperazine-2-carboxylic acid 4-(1,1-difluoro-propyl)-benzylamide]	< 0.1 µM	< 0.1 µM
CC(=O)N1CCN(S(=O)(=O)c2ccc(C(C)C)cc2)[C@@H](C(=O)NCc2ccc(-c3ccoc3)cc2)C1 [Example 481, (R)-4-acetyl-1-(4-isopropyl-benzenesulfonyl)-piperazine-2-carboxylic acid 4-furan-3-yl-benzylamide]	0.1 to 1 µM	0.1 to 1 µM
CCC(F)(F)c1ccc(CNC(=O)[C@H]2CN(C(=O)Nc3nnc(CO)s3)CCN2S(=O)(=O)c2ccc(OC(F)(F)F)cc2)cc1 [Example 482, (R)-4-(4-trifluoromethoxy-benzenesulfonyl)-piperazine-1,3-dicarboxylic acid 3-[4-(1,1-difluoro-propyl)-benzylamide] 1-[(5-hydroxymethyl-[1,3,4]thiadiazol-2-yl)-amide]]	0.1 to 1 µM	< 0.1 µM
CCC(F)(F)c1ccc(CNC(=O)[C@H]2CN(C(=O)Nc3nnc(C(C)=O)s3)CCN2S(=O)(=O)c2ccc(OC(F)(F)F)cc2)cc1 [Example 483, (R)-4-(4-trifluoromethoxy-benzenesulfonyl)-piperazine-1,3-dicarboxylic acid 1-[(5-acetyl-[1,3,4]thiadiazol-2-yl)-amide] 3-[4-(1,1-difluoro-propyl)-benzylamide]]	> 1 µM	> 1 µM
CCC(F)(F)c1ccc(CNC(=O)[C@H]2CN(C(=O)Nc3nnc(C(C)(C)O)s3)CCN2S(=O)(=O)c2ccc(OC(F)(F)F)cc2)cc1 [Example 484, (R)-4-(4-trifluoromethoxy-benzenesulfonyl)-piperazine-1,3-dicarboxylic acid 3-[4-(1,1-difluoro-propyl)-benzylamide] 1-{[5-(1-hydroxy-1-methyl-ethyl)-[1,3,4]thiadiazol-2-yl]-amide}]	0.1 to 1 µM	< 0.1 µM
CCCc1ccc(CNC(=O)[C@H]2CN(c3cnc(C(=O)O)cn3)CCN2S(=O)(=O)c2ccc(CC)cc2)c(Cl)c1 [Example 485, (R)-3-(2-chloro-4-propyl-benzylcarbamoyl)-4-(4-ethyl-benzenesulfonyl)-3,4,5,6-tetrahydro-2H-[1,2′]bipyrazinyl-5′-carboxylic acid]	< 0.1 µM	< 0.1 µM
CCCc1ccc(CNC(=O)[C@H]2CN(c3cc(C)c(C(=O)OC)nn3)CCN2S(=O)(=O)c2ccc(OC(F)(F)F)cc2)cc1 [Example 486, 4-methyl-6-[(R)-3-(4-propyl-benzylcarbamoyl)-4-(4-trifluoromethoxy-benzenesulfonyl)-piperazin-1-yl]-pyridazine-3-carboxylic acid methyl ester]	< 0.1 µM	< 0.1 µM
CCCc1ccc(CNC(=O)[C@H]2CN(c3cc(C)c(C(=O)O)nn3)CCN2S(=O)(=O)c2ccc(OC(F)(F)F)cc2)cc1 [Example 487, 4-methyl-6-[(R)-3-(4-propyl-benzylcarbamoyl)-4-(4-trifluoromethoxy-benzenesulfonyl)-piperazin-1-yl]-pyridazine-3-carboxylic acid]	< 0.1 µM	< 0.1 µM
CCC(F)(F)c1ccc(CNC(=O)[C@H]2CN(C(=O)Nc3nnc(C)s3)CCN2S(=O)(=O)c2ccc(OC(F)(F)F)cc2)cc1 [Example 488, (R)-4-(4-trifluoromethoxy-benzenesulfonyl)-piperazine-1,3-dicarboxylic acid 3-[4-(1,1-difluoro-propyl)-benzylamide] 1-[(5-methyl-[1,3,4]thiadiazol-2-yl)-amide]]	0.1 to 1 µM	< 0.1 µM
CCC(F)(F)c1ccc(CNC(=O)[C@H]2CN(C(=O)Nc3nnc(C(F)(F)F)s3)CCN2S(=O)(=O)c2ccc(OC(F)(F)F)cc2)cc1 [Example 489, (R)-4-(4-trifluoromethoxy-benzenesulfonyl)-piperazine-1,3-dicarboxylic acid 3-[4-(1,1-difluoro-propyl)-benzylamide] 1-[(5-trifluoromethyl-[1,3,4]thiadiazol-2-yl)-amide]]	> 1 µM	> 1 µM
CCC(F)(F)c1ccc(CNC(=O)[C@H]2CN(C(=O)Nc3ccnc(OC)c3)CCN2S(=O)(=O)c2ccc(OC(F)(F)F)cc2)cc1 [Example 490, (R)-4-(4-trifluoromethoxy-benzenesulfonyl)-piperazine-1,3-dicarboxylic acid 3-[4-(1,1-difluoro-propyl)-benzylamide] 1-[(2-methoxy-pyridin-4-yl)-amide]]	< 0.1 µM	0.1 to 1 µM
CCC(F)(F)c1ccc(CNC(=O)[C@H]2CN(C(=O)Nc3ccnc(C(=O)OC(C)(C)C)c3)CCN2S(=O)(=O)c2ccc(OC(F)(F)F)cc2)cc1 [Example 491, 4-{[(R)-3-[4-(1,1-difluoro-propyl)-benzylcarbamoyl]-4-(4-trifluoromethoxy-benzenesulfonyl)-piperazine-1-carbonyl]-amino}-pyridine-2-carboxylic acid tert-butyl ester]	< 0.1 µM	< 0.1 µM
CC(=O)N1CCN(S(=O)(=O)c2ccc(C(C)C)cc2)[C@@H](C(=O)NCc2ccc(-c3csnn3)cc2)C1 [Example 492, (R)-4-acetyl-1-(4-isopropyl-benzenesulfonyl)-piperazine-2-carboxylic acid 4-[1,2,3]thiadiazol-4-yl-benzylamide]	> 1 µM	0.1 to 1 µM
CC(C)c1ccc(CNC(=O)[C@H]2CN(c3cnn(CC(=O)O)c3)CCN2S(=O)(=O)c2ccc(OC(F)(F)F)cc2)cc1 [Example 493, {4-[(R)-3-(4-isopropyl-benzylcarbamoyl)-4-(4-trifluoromethoxy-benzenesulfonyl)-piperazin-1-yl]-pyrazol-1-yl}-acetic acid]	0.1 to 1 µM	0.1 to 1 µM
CCCc1ccc(CNC(=O)[C@H]2CN(c3cc(C)c(C(N)=O)nn3)CCN2S(=O)(=O)c2ccc(OC(F)(F)F)cc2)cc1 [Example 494, 4-methyl-6-[(R)-3-(4-propyl-benzylcarbamoyl)-4-(4-trifluoromethoxy-benzenesulfonyl)-piperazin-1-yl]-pyridazine-3-carboxylic acid amide]	< 0.1 µM	< 0.1 µM
CCC(F)(F)c1ccc(CNC(=O)[C@H]2CN(C(=O)Nc3nnc(C(=O)N4CC[C@@H](O)C4)s3)CCN2S(=O)(=O)c2ccc(OC(F)(F)F)cc2)cc1 [Example 495, (R)-4-(4-trifluoromethoxy-benzenesulfonyl)-piperazine-1,3-dicarboxylic acid 3-[4-(1,1-difluoro-propyl)-benzylamide] 1-{[5-((R)-3-hydroxy-pyrrolidine-1-carbonyl)-[1,3,4]thiadiazol-2-yl]-amide}]	> 1 µM	0.1 to 1 µM
CCC(F)(F)c1ccc(CNC(=O)[C@H]2CN(C(=O)Nc3nnc(C(=O)N4CCC(O)CC4)s3)CCN2S(=O)(=O)c2ccc(OC(F)(F)F)cc2)cc1 [Example 496, (R)-4-(4-trifluoromethoxy-benzenesulfonyl)-piperazine-1,3-dicarboxylic acid 3-[4-(1,1-difluoro-propyl)-benzylamide] 1-{[5-(4-hydroxy-piperidine-1-carbonyl)-[1,3,4]thiadiazol-2-yl]-amide}]	> 1 µM	> 1 µM
CCC(F)(F)c1ccc(CNC(=O)[C@H]2CN(C(=O)Nc3nnc(C(=O)N4CCOCC4)s3)CCN2S(=O)(=O)c2ccc(OC(F)(F)F)cc2)cc1 [Example 497, (R)-4-(4-trifluoromethoxy-benzenesulfonyl)-piperazine-1,3-dicarboxylic acid 3-[4-(1,1-difluoro-propyl)-benzylamide] 1-{[5-(morpholine-4-carbonyl)-[1,3,4]thiadiazol-2-yl]-amide}]	> 1 µM	> 1 µM
